According to ChEMBL document CHEMBL1201862, “PubChem BioAssay data set” (2004):
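In this assay, cells in 96-well plates receive the compound at five concentrations for 48 hours. Endpoints are linearly interpolated between the surrounding concentrations. At the GI50, growth is halved.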 Calls of active or inactive are those of the source. Rule as the data show it: active = GI50 up to about 1.1 µM and inactive = higher.

Tests used:
Assay in all cases: NCI tumour cell line growth inhibition, 48 h
[1] = test system: 786-0
[2] = test system: A498
[3] = test system: A549
[4] = test system: ACHN
[5] = test system: CAKI-1
[6] = test system: CCRF-CEM
[7] = test system: COLO 205
[8] = test system: DLD-1
[9] = test system: DMS-114
[10] = test system: DMS-273
[11] = test system: EKVX
[12] = test system: HCC 2998
[13] = test system: HCT-116
[14] = test system: HCT-15
[15] = test system: HL-60
[16] = test system: HOP-18
[17] = test system: HOP-62
[18] = test system: HOP-92
[19] = test system: HT-29
[20] = test system: IGROV-1
[21] = test system: K562
[22] = test system: KM-20L2
[23] = test system: KM12
[24] = test system: LOX IMVI
[25] = test system: LXFL 529
[26] = test system: M14
[27] = test system: M19-MEL
[28] = test system: MOLT-4
[29] = test system: Malme-3M
[30] = test system: NCI-H226
[31] = test system: NCI-H23
[32] = test system: NCI-H460
[33] = test system: NCI-H522
[34] = test system: OVCAR-3
[35] = test system: OVCAR-4
[36] = test system: OVCAR-5
[37] = test system: OVCAR-8
[38] = test system: RPMI-8226
[39] = test system: RXF 393
[40] = test system: RXF 631
[41] = test system: SF-268
[42] = test system: SF-295
[43] = test system: SF-539
[44] = test system: SK-MEL-28
[45] = test system: SK-MEL-2
[46] = test system: SK-MEL-5
[47] = test system: SK-OV-3
[48] = test system: SN12C
[49] = test system: SNB-19
[50] = test system: SNB-75
[51] = test system: SNB-78
[52] = test system: SR
[53] = test system: SW-620
[54] = test system: TK-10
[55] = test system: U-251
[56] = test system: UACC-257
[57] = test system: UACC-62
[58] = test system: UO-31
[59] = test system: XF498

With `CN(C)c1ccc2nc3c(ccc4ccccc43)[o+]c2c1` the GI50 [1] was 15.5 µM (inactive), the GI50 [2] was 17.8 µM (inactive) and the GI50 [3] was 18.7 µM (inactive). The GI50 [4] was 13.8 µM (inactive), the GI50 [5] was 15.5 µM (inactive) and the GI50 [6] was 3.17 µM (inactive). For the same molecule, the GI50 [7] was 16.3 µM (inactive), the GI50 [8] was 5.51 µM (inactive) and the GI50 [9] was 19.3 µM (inactive). The GI50 [10] was 17.9 µM (inactive), the GI50 [11] was 20.9 µM (inactive) and the GI50 [12] was 17.5 µM (inactive). The GI50 [13] was 5.97 µM (inactive), the GI50 [14] was 11.8 µM and the GI50 [15] was 1.95 µM (inactive). The GI50 [16] was 10.1 µM (inactive), the GI50 [17] was 19 µM (inactive) and the GI50 [18] was 18.3 µM (inactive). For the same molecule, the GI50 [19] was 15.3 µM (inactive), the GI50 [20] was 12.3 µM (inactive) and the GI50 [21] was 2.74 µM (inactive). The GI50 [22] was 13.8 µM (inactive), the GI50 [23] was 15 µM (inactive) and the GI50 [24] was 6 µM (inactive). The GI50 [25] was 6.53 µM (inactive), the GI50 [26] was 11 µM (inactive) and the GI50 [27] was 3.03 µM (inactive). For the same molecule, the GI50 [28] was 2.99 µM (inactive), the GI50 [29] was 12.9 µM (inactive) and the GI50 [30] was 17.7 µM (inactive). The GI50 [31] was 14 µM (inactive), the GI50 [32] was 16.2 µM (inactive) and the GI50 [33] was 2.52 µM (inactive). For the same molecule, the GI50 [34] was 3.89 µM (inactive), the GI50 [35] was 12.8 µM (inactive) and the GI50 [36] was 21.9 µM (inactive). For the same molecule, the GI50 [37] was 12.4 µM (inactive), the GI50 [38] was 3.48 µM (inactive) and the GI50 [39] was 13.3 µM (inactive). The GI50 [40] was 7.91 µM (inactive), the GI50 [41] was 15.8 µM (inactive) and the GI50 [42] was 15.5 µM (inactive). For the same molecule, the GI50 [43] was 18.2 µM (inactive), the GI50 [44] was 14.8 µM (inactive) and the GI50 [45] was 19.6 µM (inactive). The GI50 [46] was 13.4 µM (inactive), the GI50 [47] was 15.7 µM (inactive) and the GI50 [48] was 17.1 µM (inactive). For the same molecule, the GI50 [49] was 17.7 µM (inactive), the GI50 [50] was 17.5 µM (inactive) and the GI50 [51] was 14.6 µM (inactive). The GI50 [52] was 3.42 µM (inactive), the GI50 [53] was 3.2 µM (inactive) and the GI50 [54] was 17.3 µM (inactive). The GI50 [55] was 16.1 µM (inactive), the GI50 [56] was 4.67 µM (inactive) and the GI50 [57] was 11.5 µM (inactive). The GI50 [58] was 17.7 µM (inactive) and the GI50 [59] was 14.4 µM (inactive).
In the case of `COC1(C)CNCC(C)(C)NC(=O)C(C)(OC)CNCC(C)(C)NC1=O` (stereo unspecified), the GI50 [1] is reported as > 100 µM (inactive), the GI50 [2] is reported as > 100 µM (inactive) and the GI50 [3] is reported as > 100 µM (inactive). The GI50 [4] was > 100 µM (inactive), the GI50 [5] was > 100 µM (inactive) and the GI50 [6] was > 100 µM (inactive). The GI50 [7] was > 100 µM (inactive), the GI50 [8] was > 100 µM (inactive) and the GI50 [9] was > 100 µM (inactive). For the same molecule, the GI50 [10] was > 100 µM (inactive), the GI50 [11] was > 100 µM (inactive) and the GI50 [12] was > 100 µM (inactive). The GI50 [13] was > 100 µM (inactive), the GI50 [14] was over 100 µM and the GI50 [15] was > 100 µM (inactive). The GI50 [16] was > 100 µM (inactive), the GI50 [17] was > 100 µM (inactive) and the GI50 [18] was > 100 µM (inactive). For the same molecule, the GI50 [19] was > 100 µM (inactive), the GI50 [20] was > 100 µM (inactive) and the GI50 [21] was > 100 µM (inactive). For the same molecule, the GI50 [22] was > 100 µM (inactive), the GI50 [23] was > 100 µM (inactive) and the GI50 [24] was > 100 µM (inactive). For the same molecule, the GI50 [25] was > 100 µM (inactive), the GI50 [26] was > 100 µM (inactive) and the GI50 [27] was > 100 µM (inactive). For the same molecule, the GI50 [28] was > 100 µM (inactive), the GI50 [29] was > 100 µM (inactive) and the GI50 [30] was > 100 µM (inactive). For the same molecule, the GI50 [31] was > 100 µM (inactive), the GI50 [32] was > 100 µM (inactive) and the GI50 [33] was > 100 µM (inactive). For the same molecule, the GI50 [34] was > 100 µM (inactive), the GI50 [35] was > 100 µM (inactive) and the GI50 [36] was > 100 µM (inactive). The GI50 [37] was > 100 µM (inactive), the GI50 [38] was > 100 µM (inactive) and the GI50 [39] was > 100 µM (inactive). The GI50 [40] was > 100 µM (inactive), the GI50 [41] was > 100 µM (inactive) and the GI50 [42] was > 100 µM (inactive). The GI50 [43] was > 100 µM (inactive), the GI50 [44] was > 100 µM (inactive) and the GI50 [45] was > 100 µM (inactive). For the same molecule, the GI50 [46] was > 100 µM (inactive), the GI50 [47] was > 100 µM (inactive) and the GI50 [48] was > 100 µM (inactive). For the same molecule, the GI50 [49] was > 100 µM (inactive), the GI50 [50] was > 100 µM (inactive) and the GI50 [51] was > 100 µM (inactive). The GI50 [53] was 49.4 µM (inactive), the GI50 [54] was > 100 µM (inactive) and the GI50 [55] was > 100 µM (inactive). For the same molecule, the GI50 [56] was > 100 µM (inactive), the GI50 [57] was > 100 µM (inactive) and the GI50 [58] was > 100 µM (inactive).
